{"source": "patent US5032588A", "about": "“Thiazole lipoxygenase-inhibiting compounds derived from non-steroidal antiinflammatory carboxylic acids” (Abbott Laboratories, priority 1989, dated 1991)"}
{"biological_target": "T1, 5-lipoxygenase (Rattus norvegicus, UniProt P12527)", "T1 construct": "20,000x g supernatant from homogenized RBL-1 cells; endogenous in cells; host or cells: RBL-1 cells (20,000 x g supernatant of homogenate)", "T1 sequence (P12527 1-673)": "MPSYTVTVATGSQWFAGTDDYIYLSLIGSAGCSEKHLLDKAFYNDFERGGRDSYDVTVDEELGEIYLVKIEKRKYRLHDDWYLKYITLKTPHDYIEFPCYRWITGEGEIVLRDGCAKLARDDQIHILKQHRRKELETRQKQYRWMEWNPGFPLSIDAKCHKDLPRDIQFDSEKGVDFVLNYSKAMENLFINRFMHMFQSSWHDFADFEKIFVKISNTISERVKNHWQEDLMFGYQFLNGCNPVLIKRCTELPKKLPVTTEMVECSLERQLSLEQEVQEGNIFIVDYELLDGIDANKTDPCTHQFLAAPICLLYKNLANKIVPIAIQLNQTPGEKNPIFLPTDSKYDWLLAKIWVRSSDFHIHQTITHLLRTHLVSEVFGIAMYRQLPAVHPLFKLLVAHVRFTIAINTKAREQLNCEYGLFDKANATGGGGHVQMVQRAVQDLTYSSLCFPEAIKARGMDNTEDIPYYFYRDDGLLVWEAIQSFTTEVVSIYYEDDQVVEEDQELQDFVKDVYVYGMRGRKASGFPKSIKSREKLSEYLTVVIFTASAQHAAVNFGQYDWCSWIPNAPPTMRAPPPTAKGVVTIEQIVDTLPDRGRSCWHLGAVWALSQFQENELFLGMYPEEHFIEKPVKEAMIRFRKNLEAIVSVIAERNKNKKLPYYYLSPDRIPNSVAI", "assay": "Inhibition of 5-lipoxygenase activity (20,000x g supernatant from homogenized RBL-1 cells)", "format": "biochemical", "settings": "linear regression of percentage inhibition versus log inhibitor concentration, read-out: IC50 (concentration of compound producing 50% enzyme inhibition)", "experimental": "Inhibition of 5-lipoxygenase activity was determined using the 20,000x g supernatant from homogenized RBL-1 cells in a similar manner as that described by Dyer and coworkers (Dyer, R. D.; Haviv, F.; Hanel, A. M.; Bornemier, D. A.; Carter, G. W. Fed. Proc., Fed. Am. Soc. Exp. Biol., 43:1462A, (1984).) IC50 values (concentration of compound producing 50% enzyme inhibition) were calculated by linear regression analysis of percentage inhibition versus log inhibitor concentration plots.", "units": {"IC50": "nM"}}
{"smiles": "COc1ccc2cc(C(C)c3nc(O)c(-c4ccccc4)s3)ccc2c1", "note": "(centres unmarked) [Example 1, 2-[1-(6-methoxy-2-naphthyl)ethyl]-5-phenyl-4-hydroxythiazole]", "IC50": 420}
{"smiles": "CC(C)Cc1ccc(C(C)c2nc(O)c(-c3ccccc3)s2)cc1", "note": "(centres unmarked) [Example 2, 2-[1-(4-isobutylphenyl)ethyl]-5-phenyl-4-hydroxy-thiazole]", "IC50": 710}
{"smiles": "CC(C)Cc1ccc(Cc2nc(O)c(-c3ccccc3)s2)cc1", "note": "[Example 3, 2-[(4-isobutylphenyl)methyl]-5-phenyl-4-hydroxythiazole]", "IC50": 1100}
{"smiles": "CCC(c1ccc(CC(C)C)cc1)c1nc(O)c(-c2ccccc2)s1", "note": "(centres unmarked) [Example 4, 2-[1-(4-isobutylphenyl)propyl]-5-phenyl-4-hydroxythiazole]", "IC50": 60}
{"smiles": "COc1ccc2cc(C(C)c3sc(-c4ccccc4)nc3O)ccc2c1", "note": "(centres unmarked) [Example 5, 5-[1-(6-methoxy-2-naphthyl)ethyl]-2-phenyl-4-hydroxythiazole]", "IC50": 900}
